Assay results reported in US8609654B1, “Compounds for enzyme inhibition” (Onyx Therapeutics, Inc., priority 2006, dated 2013).

Columns and labels:
[1] = test system: chymotryptic-like activity of isolated 20S constitutive proteasome vs immunoproteasome; assay: Enzyme kinetic assay with isolated 20S proteasome preps, EC50 ratio of CT-L activity (20S ratio); assay type: biochemical; conditions: constitutive proteasome to immunoproteasome, >1 = prefers immunoproteasome
Text: Enzyme kinetic assays such as those disclosed in U.S. application Ser. No. 09/569,748, Example 2 and Stein et al., Biochem. (1996), 35, 3899-3908 use isolated 20S proteasome preps with greater than 90% constitutive proteasome subunits or immunoproteasome subunits. The inhibitory preference of the molecule is then based on the EC50 ratio of the chymotryptic-like activity of the constitutive proteasome to that of the immunoproteasome (20S ratio).

[2] = target: T1, 26S proteasome CT-L activity in lysate of HT29 (constitutive) vs Sultan/Thp1 (immunoproteasome) cells (Homo sapiens, UniProt P28062+P28074); assay: CT-L EC50 with 26S proteasome in cell lysate (Lysate ratio); assay type: biochemical; conditions: HT29 lysate to Sultan/Thp1 lysate, >1 = prefers immunoproteasome
T1 construct: using 26S proteasome in the context of a cell lysate; endogenous in cells; host or cells: HT29 lysate (constitutive); Sultan or THP1 lysate (immunoproteasome)
T1 sequence (P28074 60-263): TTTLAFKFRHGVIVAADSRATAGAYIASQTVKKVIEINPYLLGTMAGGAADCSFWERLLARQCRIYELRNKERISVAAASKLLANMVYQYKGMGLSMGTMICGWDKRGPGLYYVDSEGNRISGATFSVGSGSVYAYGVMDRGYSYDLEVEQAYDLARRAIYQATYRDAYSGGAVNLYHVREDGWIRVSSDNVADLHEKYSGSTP
T1 sequence (P28062 73-276): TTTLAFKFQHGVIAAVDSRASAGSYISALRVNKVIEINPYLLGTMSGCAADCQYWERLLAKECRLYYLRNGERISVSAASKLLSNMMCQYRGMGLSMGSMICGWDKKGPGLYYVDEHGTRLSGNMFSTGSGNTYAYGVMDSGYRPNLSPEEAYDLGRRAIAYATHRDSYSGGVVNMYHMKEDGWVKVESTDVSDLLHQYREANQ
Experimental: Alternatively, the CT-L EC50 of a compound can be determined using 26S proteasome in the context of a cell lysate. Compound is added to lysate generated from cells that either predominantly express constitutive proteasome (e.g., HT29) or immunoproteasome (e.g., THP1). Again, the inhibitory preference is then based on the EC50 ratio (Lysate ratio).

[3] = target: T2, 20S proteasome subunit β5 vs immunoproteasome subunit LMP7 in RPMI-8226 cells (Homo sapiens, UniProt P28062+P28074); assay: ELISA-based active site assay in RPMI-8226 cells (ELISA ratio); assay type: cell-based; conditions: EC50 ratio with β5 antibody to LMP7 antibody, RPMI-8226 cells; >1 = prefers immunoproteasome
T2 construct: Cells expressing approximately equivalent amounts of immuno- and constitutive proteasome (e.g., RPMI-8226) are treated with test compound; endogenous in cells; host or cells: RPMI-8226 multiple myeloma cells
T2 sequence (P28074 60-263): T1 sequence (P28074 60-263)
T2 sequence (P28062 73-276): T1 sequence (P28062 73-276)
Experimental: Lastly, a more cell-based approach can be utilized. Cells expressing approximately equivalent amounts of immuno- and constitutive proteasome (e.g., RPMI-8226) are treated with test compound, followed by the method for determining the activity of a proteasome inhibitor as described in application Ser. No. 11/254,541. The ratio of the EC50 generated in the ELISA-based assay using β5 antibody and LMP7 antibodies (ELISA ratio) provides the basis for determining the inhibitory preference of the test compound. […] In all three assays, a ratio of less than one denotes the molecule inhibits the CT-L activity of the constitutive proteasome better than that of the immunoproteasome. Ratios greater than one signifies the molecule inhibits chymotrypsin-like activity of the immunoproteasome better than that of the constitutive proteasome.
A suitable ELISA assay may be found in U.S. patent application Ser. No. 11/254,541, incorporated herein in its entirety. Briefly, RPMI-8226 cells were treated with 0.1 nM to 1 μM of proteasome Inhibitor B. The samples were then washed with phosphate-buffered saline (PBS) and lysed in hypotonic buffer (20 mM Tris pH 8, 5 mM EDTA) (Tris-HCl and EDTA are available from Teknova, Inc., Hollister, Calif.). Cellular debris was removed by centrifugation at 14,000 rpm in a microfuge (4° C.) for 2 min. The supernatant was transferred to a fresh tube, snap frozen in liquid nitrogen and stored at −80° C. After thawing on ice, the samples (30 μl for assays run in triplicate) were treated with 500 nM of Inhibitor A for 1 hr at room temperature. Following treatment with Inhibitor A, the lysate was denatured by addition of seven volumes of 1% SDS (210 μl) (available from Bio-Rad, Hercules, Calif.) and heating at 99° C. with vigorous shaking for 5 min. The sample was allowed to cool and two volumes (60 μl) of 10% Triton X-100 (available from Bio-Rad, Hercules, Calif.) was added.
Streptavidin sepharose beads (6.5 μl/well) (available from Amersham Biosciences, Piscataway, N.J.), were washed three times with 1 ml PBS (available from Mediatech, Inc., Herndon, Va.) in a microcentrifuge tube. The beads were resuspended in ELISA wash/block buffer (PBS+0.1% Tween 20+1% bovine serum albumin; 20 μl/well) and transferred to the wells of a 96 well filter plate (BSA is available from Sigma, St. Louis, Mo.; Tween is available from Calbiochem, San Diego, Calif.). Denatured whole blood or PBMC lysates that were treated with Inhibitor 3 were added to the filter plate wells containing the streptavidin sepharose beads (each sample assayed in triplicate) and incubated for 1 hr at room temperature with shaking (MultiScreen-DV Opaque Plates with low protein binding durapore membrane; available from Millipore, Billerica, Mass.). The unbound material was removed by gentle filtration and the beads were washed six times with ELISA wash/block buffer (200 μl each).
Primary antibody to human 20S proteasome subunit (35 (rabbit polyclonal antibody; available from Biomol, Plymouth Meeting, Pa.) or human 20S immunoproteasome subunit LMP7 (rabbit polyclonal antibody; available from Affinity BioReagents, Golden, Colo.) was diluted 1:1000 in ELISA wash/block buffer, added to the beads (100 μl/well), and incubated for 1 hr at room temperature on an orbital shaker. The beads were washed six times with ELISA wash/block buffer with gentle filtration. Secondary antibody treatment (1:5000) and washing are as described for primary antibody (goat anti-rabbit antibody-HRP conjugate; available from Biosource, Camarillo, Calif.). The beads were then resuspended in 100 μl chemiluminescent detection reagent (Super Signal Pico Chemiluminescent Substrate™; available from Pierce, Rockford, Ill.) and luminescence was read on a Tecan plate reader. […]

20 S ratio (const:immuno) [1]	Lysate ratio (HT29:Sultan/Thp1) [2]	Elisa ratio (beta5:LMP7) [3]	Structure (SMILES)
>2.0	>5.0	>5.0	Cc1ccc(C[C@H](NC(=O)[C@H](C)NC(=O)OCc2ccccc2)C(=O)N[C@@H](Cc2ccccc2)C(=O)C2(C)CO2)cc1 (stereo partly drawn)
>5.0	>5.0	>5.0	CC(C)C(NC(=O)OCc1ccccc1)C(=O)N[C@@H](Cc1c[nH]c2ccccc12)C(=O)N[C@@H](Cc1ccccc1)C(=O)C1(C)CO1 (stereo partly drawn)
>2.0	>5.0	>3.0	C[C@H](NC(=O)OCc1ccccc1)C(=O)N[C@@H](Cc1c[nH]c2ccccc12)C(=O)N[C@H](C(=O)C1(C)CO1)c1ccccc1 (stereo partly drawn)
>3.0	>3.0	>2.0	CC1(C(=O)[C@H](Cc2ccccc2)NC(=O)[C@H](Cc2ccccc2)NC(=O)C(CC(=O)O)NC(=O)OCc2ccccc2)CO1 (stereo partly drawn)
>1.0	>5.0	>1.0	CC(NC(=O)OCc1ccccc1)C(=O)N[C@@H](Cc1ccccc1)C(=O)N[C@H](C(=O)C1(C)CO1)c1ccccc1 (stereo partly drawn)
>2.0	>2.0	>3.0	C[C@H](NC(=O)OCc1ccccc1)C(=O)N[C@@H](Cc1ccc(C(C)(C)C)cc1)C(=O)N[C@@H](Cc1ccccc1)C(=O)C1(C)CO1 (stereo partly drawn)
>3.0	>3.0	>2.0	CC1(C(=O)[C@H](Cc2ccccc2)NC(=O)[C@H](Cc2c[nH]c3ccccc23)NC(=O)C(CC(=O)O)NC(=O)OCc2ccccc2)CO1 (stereo partly drawn)
>1.0	>5.0	>1.0	CC1(C(=O)[C@H](Cc2ccccc2)NC(=O)[C@H](Cc2c[nH]c3ccccc23)NC(=O)[C@H](CC(N)=O)NC(=O)OCc2ccccc2)CO1 (stereo partly drawn)
>5.0	>3.0	>5.0	CC[C@@H](NC(=O)OCc1ccccc1)C(=O)N[C@@H](Cc1c[nH]c2ccccc12)C(=O)N[C@@H](Cc1ccccc1)C(=O)C1(C)CO1 (stereo partly drawn) [drawing 84]
>2.0	>3.0	>1.0	CC1(C(=O)[C@H](Cc2ccccc2)NC(=O)[C@H](Cc2c[nH]c3ccccc23)NC(=O)C(CSCc2ccccc2)NC(=O)OCc2ccccc2)CO1 (stereo partly drawn)
>3.0	>5.0	>2.0	CC1(C(=O)[C@H](Cc2ccccc2)NC(=O)[C@H](Cc2ccccc2)NC(=O)CNC(=O)OCc2ccccc2)CO1 (stereo partly drawn)
<0.5	<0.5	<1.0	CC(C)C[C@H](NC(=O)[C@H](Cc1ccccc1)NC(=O)C(C)NC(=O)OCc1ccccc1)C(=O)C1(C)CO1 (stereo partly drawn)
>5.0	>3.0	>3.0	CC(NC(=O)OCc1ccccc1)C(=O)N[C@@H](Cc1ccccc1)C(=O)N[C@@H](Cc1ccc(O)cc1)C(=O)C1(C)CO1 (stereo partly drawn)
>5.0	>5.0	>3.0	CC[C@@H](NC(=O)OCc1ccccc1)C(=O)N[C@@H](Cc1ccccc1)C(=O)N[C@@H](Cc1ccccc1)C(=O)C1(C)CO1 (stereo partly drawn)
>5.0	>3.0	>5.0	COc1ccc(C[C@H](NC(=O)C(C)NC(=O)OCc2ccccc2)C(=O)N[C@@H](Cc2ccc(O)cc2)C(=O)C2(C)CO2)cc1 (stereo partly drawn) [drawing 67]
>1.0	>2.0	>5.0	CC(NC(=O)OCc1ccccc1)C(=O)N[C@@H](Cc1c[nH]c2ccccc12)C(=O)N[C@@H](Cc1ccccc1)C(=O)C1(C)CO1 (stereo partly drawn)
>3.0	>3.0	>1.0	CC1(C(=O)[C@H](Cc2ccccc2)NC(=O)[C@H](Cc2c[nH]c3ccccc23)NC(=O)[C@@H](NC(=O)OCc2ccccc2)c2ccccc2)CO1 (stereo partly drawn)
<0.5	<1.0	<0.5	CC(C)CC(NC(=O)OCc1ccccc1)C(=O)N[C@@H](CC(C)C)C(=O)N[C@@H](Cc1ccccc1)C(=O)C1(C)CO1 (stereo partly drawn)
>5.0	>5.0	>5.0	C[C@@H](NC(=O)OCc1ccccc1)C(=O)N[C@@H](Cc1c[nH]c2ccccc12)C(=O)N[C@@H](Cc1ccccc1)C(=O)C1(C)CO1 (stereo partly drawn)
<0.5	<0.5	<0.5	CC(C)C[C@H](NC(=O)CN1CCOCC1)C(=O)N[C@@H](Cc1ccccc1)C(=O)N[C@@H](CC(C)C)C(=O)C1(C)CO1 (stereo partly drawn)
<1.0	<1.0	<1.0	CC1(C(=O)[C@H](Cc2ccccc2)NC(=O)[C@H](Cc2ccccc2)NC(=O)[C@H](Cc2c[nH]cn2)NC(=O)OCc2ccccc2)CO1 (stereo partly drawn)
>5.0	>3.0	>2.0	CC[C@H](C)[C@@H](NC(=O)OCc1ccccc1)C(=O)N[C@@H](Cc1ccccc1)C(=O)N[C@@H](Cc1ccccc1)C(=O)C1(C)CO1 (stereo partly drawn)
>5.0	>2.0	>1.0	CC(NC(=O)OCc1ccccc1)C(=O)N[C@@H](Cc1ccc(C(F)(F)F)cc1)C(=O)N[C@@H](Cc1ccccc1)C(=O)C1(C)CO1 (stereo partly drawn)
>5.0	>3.0	>5.0	COc1ccc(C[C@H](NC(=O)C(C)NC(=O)OCc2ccccc2)C(=O)N[C@@H](Cc2ccccc2)C(=O)C2(C)CO2)cc1 (stereo partly drawn) [drawing 66]
